The test system of the assay is P. falciparum 3D7 growth, pLDH absorbance. Description: P. falciparum 3D7 growth inhibition, dose response, strain 3D7 (AID 2305).

84 compounds from PubChem BioAssay AID2305 (GlaxoSmithKline (GSK), 2010) can be followed below.

Compound `CC(CN1CCN(C)CC1)C(=O)Nc1cccc(-c2cccc(-c3nc4ccc(F)cc4[nH]3)c2)c1` (centres undefined) came in with an IC50 of 270 nM. In other words, the sub-micromolar range.

`O=C(CCc1cnc[nH]1)Nc1cccc(-c2cccc(-c3nc4ccccc4[nH]3)c2)c1` had a concentration for half-maximal inhibition (IC50) of 660 nM. Under `Cc1cc(NC(=O)c2ccsc2)ccc1OC1CCN(Cc2ccc(F)cc2)CC1` stands 1220 nM; under `CC[C@H](C)[C@@H](C(=O)N1CCOCC1)N1CC[C@H](NS(=O)(=O)CC(C)(C)c2ccc(Cl)cc2)C1=O`, 550 nM; under `O=C(C=Cc1ccc(Cl)c(Cl)c1)NCCCCCN1CCC(CCCNS(=O)(=O)c2cccc(C(F)(F)F)c2)CC1`, 480 nM.

Consider `CCN(CC)CCN(Cc1ccc(-c2ccc(C(F)(F)F)cc2)cc1)C(=O)Cn1c(CCc2cccc(F)c2F)cc(=O)cc1-c1ccccc1`, for which the half-maximal inhibitory concentration (IC50) came out at 780 nM. Under `COc1cccc(-c2ccc(O)c(CNCCc3cccc(F)c3)c2)n1` stands 910 nM; under `CSCCCN1CCC(O)(c2ccc3oc(C(=O)Nc4ccc5sc(C)nc5c4)cc3c2)CC1`, 1070 nM; under `O=C(NCc1ccc(F)cc1)c1cc(Br)cc(N2CCN(c3ccncc3)CC2)c1`, 1230 nM.

`CCCSc1nc2c(c(=O)n1Cc1ccco1)C1(CCCCC1)Cc1ccccc1-2`: the IC50 amounted to 420 nM.

As to `COc1cc(NC(=O)CCCCCCCCN2CCN(C)CC2)c2ncccc2c1`, the IC50 was found to be 890 nM.

With `CS(=O)(=O)c1ccc(CCNCc2ccc(-c3cccc(-c4nc5ccccc5[nH]4)c3)cc2)cc1`, the half-maximal inhibitory concentration (IC50) turned out to be 190 nM.

Regarding `O=C(/C=C/c1c[nH]c2ccccc12)NCCCCCN1CCC(c2c[nH]c3ccccc23)CC1`, the concentration for half-maximal inhibition (IC50) came out at 930 nM. In the case of `CC1(C)Cc2c(oc3ncn(CCn4cnc5oc6c(c5c4=N)CC(C)(C)SC6)c(=N)c23)CS1` it was 720 nM; in that of `O[C@@H](c1ccccc1)[C@@H]1CN(CCc2ccccc2)CC[C@@]1(O)c1ccccc1`, 1040 nM; in that of `COc1ccccc1Nc1nc(NC2CCN(C)CC2)cc(-c2cccc(C(F)(F)F)c2)n1`, 920 nM. In turn, `O=C(Nc1ccc2c(c1)CCN2C1CCN(Cc2csc3ccccc23)C1)c1ccco1` (centres undefined) gave a concentration for half-maximal inhibition (IC50) of 320 nM. In turn, `O=C(NCCCCCN1CCC(c2c[nH]c3ccccc23)CC1)Nc1cccc(I)c1` registered a half-inhibitory concentration (IC50) of 990 nM. The compound `Cc1c(CNCCCNc2nc3ccccc3[nH]2)[nH]c2cc(Cl)cc(Cl)c12` had an IC50 of 230 nM. Under `NS(=O)(=O)CCc1cccc(Nc2nccc(-c3c(-c4cccc(NC(=O)c5c(F)cccc5F)c4)nn4ccccc34)n2)c1` stands 60 nM. Regarding `O=C(Nc1cccc(-c2cccc(-c3nc4ccc(C(F)(F)F)cc4[nH]3)c2)c1)c1ccoc1`, the IC50 was 280 nM. This IC50 is about 4.7-fold higher than that of the compound before. With `Clc1ccc2c(NCCc3ccccn3)ccnc2c1`, the concentration for half-maximal inhibition (IC50) worked out at 830 nM. Compound `CCN(CC)CC#Cc1ccc2[nH]c(C)c(Cl)c(=O)c2c1` yielded an IC50 of 700 nM. `CCOc1ccc(-c2n[nH]c(C(F)(F)F)c2-c2ccccc2OC)c(O)c1` had an IC50 of 1140 nM. Under `CS(=O)(=O)CCCNCc1ccc(-c2cc3c(Nc4ccc(OCc5ccccc5)cc4)ncnc3cn2)o1` stands 650 nM; under `COc1cc(NC(=O)/C=C/c2ccccc2OC(F)(F)F)cc(OCCN2CCCCC2)c1`, 190 nM. Under `CN(C)CCn1cc(C(=O)c2cc(Cl)ccc2O)cc1-c1nc2ccccc2c(=O)[nH]1` stands 630 nM. In the case of `O=C(/C=C/c1ccc(Cl)c(Cl)c1)NCCCCCCN1CCCN(C(=O)Nc2cccc(C(F)(F)F)c2)CC1`, the 50% inhibitory concentration (IC50) was 790 nM. In the case of `C[C@@H](CC1CCCCC1)OC(=O)N(C)[C@H]1CCN(C#N)C1` it was 220 nM. For `CCN(CC)CCN(Cc1ccc(-c2ccc(C(F)(F)F)cc2)cc1)C(=O)Cn1nc(-c2ccc(C(F)(F)F)cc2)ccc1=O`, the half-maximal inhibitory concentration (IC50) was determined as 800 nM. Against the preceding compound, the IC50 is about 3.6-fold higher.

For the compound `CCCC(C)Nc1nc(C)cc(N[C@@H](Cc2ccccc2)C(=O)Nc2ccc(OC)cc2)n1` (some centres undefined), the IC50 was found to be 1120 nM.

Take `COc1ccc(C2c3ccccc3-c3nc(N)nc(N)c3C2C)cc1` (centres undefined): the IC50 was found to be 240 nM. The compound `C#CCN(Cc1ccc2nc(N)[nH]c(=O)c2c1)c1ccc(C(=O)N[C@@H](CCC(=O)O)C(=O)O)cc1` displayed an IC50 of 220 nM. `CCCCCCP(=O)(COc1ccc(CCN(CC(O)COc2cccc3[nH]c(C(N)=O)cc23)CC(O)COc2cccc3[nH]c(C(N)=O)cc23)cc1)OCCCC` (centres undefined) returned a concentration for half-maximal inhibition (IC50) of 720 nM. This IC50 lies about 3.3-fold higher than the previous one. Regarding `CCCCCc1cc(OC(C)=O)c2c(c1)OC(C)(C)C=C2C1=CCN(Cc2ccccc2)CC1`, the IC50 came out at 930 nM. On to `Cc1ccc(CNC(=O)c2cc3c(=O)n4cccc(C)c4nc3n(CCN3CCOCC3)c2=N)cc1`, for which the IC50 amounted to 850 nM. `N#Cc1cccc(NC(=O)Nc2cccc(-c3ccc(-c4nc5ccc(C(F)(F)F)cc5[nH]4)cc3)c2)c1` returned an IC50 of 250 nM. Compared with the last compound, the IC50 is about 3.4-fold lower. Under `C#CCNC(=O)c1ccc(-c2ccnc(Nc3cccc(CCCN4CCOCC4)c3)n2)s1` stands 1000 nM. In the case of `CC(C)NCc1cccc(-c2cccc(NC(=O)c3cccc(C#N)c3)c2)c1` it was 820 nM; in that of `CCCN(CCC)CCCN(CCCN(CCC)CCC)c1cc(C)nc(Nc2ccc3cc(Br)ccc3c2)n1`, 210 nM; in that of `O=C(/C=C/c1ccc(Cl)c(Cl)c1)NCCCCCN1CCC(NC(=S)Nc2ccc(F)cc2F)CC1`, 810 nM. In the case of `COc1cc2cc(-c3nc4ccccc4[nH]3)c(N)nc2cc1OC` it was 170 nM; in that of `O=C1NC(C(=O)Nc2ccccc2)C(c2ccccc2)S1` (centres undefined), 170 nM; in that of `Cc1cc(NCCc2ccccc2)nc(/N=C(\N)Nc2ccccc2Cl)n1`, 790 nM. Compound `Cc1[nH]c(C)c(-c2ccc(OCc3cc(F)cc(F)c3)nc2)c(=O)c1Cl` returned an IC50 of 90 nM. As for `O=C(/C=C/c1ccc([N+](=O)[O-])cc1)N1CCC(NS(=O)(=O)c2cccc(C(F)(F)F)c2)CC1`, the 50% inhibitory concentration (IC50) came to 850 nM. `Nc1nc(N)c2c(Oc3cccc(Cl)c3)cccc2n1`: the IC50 was 470 nM. Compared with the last compound, the IC50 is about 1.8-fold lower. Regarding `CC(C)Cn1cc(C2CCN(CCN3CCC(CNC(=O)c4ccc(-c5ccc(C(F)(F)F)cc5)cc4)CC3)CC2)c2ccccc21`, the IC50 worked out at 750 nM. Compared with the last compound, the IC50 is about 1.6-fold higher. The compound `Oc1cccc(CNCCCN(Cc2ccccc2)c2ccccc2)c1` gave a 50% inhibitory concentration (IC50) of 600 nM. As to `Cc1cnc(Nc2ccccc2)nc1NCCC(=O)Nc1ccccc1`, the IC50 was 1160 nM. Compound `COCCn1c(-c2cccc(Cl)c2)nn(-c2ccc([N+](=O)[O-])cc2Cl)c1=S` came in with an IC50 of 740 nM.

In turn, `CS(=O)(=O)N(CC(O)Cn1c2ccc(Cl)cc2c2cc(Cl)ccc21)c1ccccc1` (centres undefined) came in with an IC50 of 900 nM. `Cc1c(CNCCCNc2cc(=O)c3ccccc3[nH]2)sc(C(F)F)c1Br` displayed an IC50 of 870 nM. In the case of `COc1cc2nc(NCCc3cccc(Cl)c3)nc(NCc3ccccc3)c2cc1OC` it was 120 nM; in that of `COc1ccc(C(=O)N2CCN(c3ccc([N+](=O)[O-])c(NC4CC4)c3)CC2)cc1Br`, 800 nM; in that of `Cc1[nH]nc2ccc(-c3cc(OC[C@@H](N)Cc4ccccc4)cnc3-c3ccc(OCc4cccc(F)c4)cc3)cc12`, 730 nM. With `CC(=O)c1cccc2[nH]c(C(=O)NC3CCC(CCN4CCc5ccc(C#N)cc5C4)CC3)cc12` (centres undefined), the IC50 was determined as 840 nM. Under `COc1ccc(C2CCN(C#N)C2)cc1OC1CCCC1` (centres undefined) stands 230 nM. In the case of `COc1ccc2nccc([C@@H](O)CN3CCC(NCc4ccc5c(c4)NC(=O)CS5)CC3)c2n1` it was 750 nM; in that of `O=[N+]([O-])c1ccc(C(O)CNCCc2ccccc2)cc1OCc1ccccc1` (centres undefined), 910 nM. In the case of `CCCNCc1ccc(-c2ccc(CN(Cc3cnc(C)cn3)C(=O)CC#N)cc2)nc1` it was 1220 nM; in that of `COc1ccc(CN(C)CCCOc2ccc(NC(=O)c3cccc4c(=O)c5cccc(C)c5[nH]c34)cc2)cc1OC`, 890 nM; in that of `O=C(Nc1ccc(F)c(C(F)(F)F)c1)N[C@H]1CCN(CCCCCNC(=O)[C@@H]2C[C@H]2c2ccc(Cl)c(Cl)c2)C1`, 160 nM. Regarding `Cc1cccc2[nH]c(-c3cccc(-c4cccc(NC(=O)c5cnccc5C(F)(F)F)c4)c3)nc12`, the half-maximal inhibitory concentration (IC50) was 660 nM. In the case of `O=C(/C=C/c1ccc(Cl)c(Cl)c1)NCCCCCN1CCCN(C(=O)Nc2ccc(OC(F)F)cc2)CC1` it was 830 nM. On to `CCN(CC)CCN(Cc1ccc(-c2ccc(C(F)(F)F)cc2)cc1)C(=O)c1ccc(-c2ccc(C#N)cc2)cc1`, for which the IC50 worked out at 1110 nM. The IC50 values of the last two compounds are within 1.5-fold of each other. In the case of `O=C(NCC1CCN(C/C=C/c2ccccc2)CC1)Nc1ccc(Oc2ccccc2)cc1` it was 1040 nM.

`O=C(Cc1ccccc1)NC(CCN1CCC(NC(=O)c2ccc(Cl)cc2)CC1)c1ccc(Cl)c(Cl)c1` (centres undefined) had a half-inhibitory concentration (IC50) of 920 nM.

`COc1cc(CNCCCCCCNCc2cc(OC)c3ccccc3c2OC)c(OC)c2ccccc12` had an IC50 of 700 nM. In the case of `CC(=O)Nc1ccc2[nH]cc(C3CCN(CC4CCC(NC(=O)/C=C/c5ccc(Cl)c(Cl)c5)CC4)CC3)c2n1` (centres undefined) it was 260 nM.

As for `NC(=O)C1CCN(Cc2ccc(-c3ccc(-c4nc5ccc(C(F)(F)F)cc5[nH]4)cc3)cc2)CC1`, the half-inhibitory concentration (IC50) was determined as 680 nM. In the case of `CC(C)NCc1ccc(-c2cccc(CN3CCC(c4ccccc4)CC3)c2)c(C(=O)NCC2CCCCC2)c1` it was 850 nM; in that of `Cc1[nH]c2ccc(-c3ccc(N(C)C)cc3)cc2c(=O)c1Cl`, 720 nM; in that of `CCOc1ccc(-c2nonc2NC(=O)c2ccc(Cl)cc2)cc1OCC`, 990 nM. The compound `CCCN(CCC)C(=O)c1cc(C(=O)N[C@@H](Cc2ccccc2)[C@H](O)CNCc2cccc(OC)c2)cc(N2CCCCS2(=O)=O)c1` had an IC50 of 550 nM. In the case of `NC(N)=Nc1ccc(C(=O)O)c(O)c1` it was 1030 nM; in that of `CCOc1cc(C(=O)NCCN2CCCCC2)ccc1-c1nc2ccc(Cl)cc2[nH]1`, 1080 nM. As to `COCCn1ccc2c3c(N)nc(N)nc3ccc21`, the IC50 turned out to be 210 nM. Compared with the last compound, the IC50 is about 5.1-fold lower. Under `NC(N)=Nc1nc(-c2cccc(NC(=O)CCCCCCCON3C(N)=NC(N)=NC34CCCCC4)c2)cs1` stands 40 nM; under `O=C(c1cccc(Br)c1)N1CCN(c2ccc([N+](=O)[O-])c(NC3CC3)c2)CC1`, 940 nM; under `O=C(Nc1ccc2nc(-c3ccc4nc(NC(=O)C5CCCCC5)sc4c3)[nH]c2c1)C1CCCCC1`, 610 nM.

Regarding `O=C(Nc1ccccc1O)c1ccc(S(=O)(=O)c2ccc(Cl)cc2)cc1`, the IC50 stood at 1350 nM. This IC50 lies about 2.2-fold higher than the previous one. On to `O=C(/C=C/c1ccc(F)cc1)NC1CCC(CCN2CCCN(c3ccc(C(F)(F)F)cn3)CC2)CC1` (centres undefined), for which the half-inhibitory concentration (IC50) turned out to be 1080 nM. Under `CCCCCC(NCCCC)c1ccc(OCCOc2ccc(C(CCCCC)NCCCC)cc2)cc1` (centres undefined) stands 1240 nM.
